Assay results taken from patent publication US20140303092A1 (CHIMERIX, INC., priority 2011, published 2014).
Several values for one entry are separate records, joined by “and”; a condition that tells them apart may be missing. Equal values may be shown once.

Test system: CMV
Assay: Study HDP-CDV-201: prevention or control of CMV infection in R+ HSCT recipients (efficacy)
Format: in vivo, human (adult allogeneic HSCT recipients)
Conditions: for Time to CMV DNAemia (≧100 copies/mL), Mean / Number of Subjects who had CMV DNAemia (≧100 copies/mL) by the end of study / Time to CMV DNAemia (≧100 copies/mL), Median: CMV DNA negative at baseline; for Difference (HDP-CDV minus placebo) in rate of CMV DNAemia ≧1,000 copies/mL / Rate of CMV DNAemia ≧1,000 copies/mL during the treatment period: CMV modified strata: positive; for Discontinuation: Emergence of CMV disease / Discontinuation: Initiation of alternate CMV therapy: active treatment period
Description: The clinical study of the current invention (HDP-CDV-201) was a 9-11 week randomized, placebo-controlled, double-blind, dose-escalation study (40 mg weekly [QW], 100 mg QW, 200 mg QW, 200 mg twice-weekly [BIW], and 100 mg BIW) of HDP-CDV for the prevention of CMV infection post-HCT. Treatment was initiated at the time of engraftment and continued until Week 13 post-HCT. HDP-CDV, at various doses, was active and well tolerated in the prevention CMV infection or disease.
Clinical Studies of HDP-CDV were performed and described in detail in the following Examples. For example, HDP-CDV-201 is a placebo-controlled, dose-escalating trial in HSCT CMV (R+) recipients, evaluating the ability of HDP-CDV to prevent or control CMV infection was carried out. Five cohorts were established in which participants or subjects received either placebo or the HDP-CDV orally, in doses ranging from 40 mg weekly (QW) to 200 mg twice weekly (BIW). Subjects who were post-HSCT were enrolled at the time of engraftment and randomized to HDP-CDV or placebo (3 to 1 ratio) and received blinded therapy until approximately 100 day post-transplantation. HDP-CDV doses were 40 mg QW, 100 mg QW, 200 mg QW, 200 mg BIW and 100 mg BIW. Escalation to the next dose was decided by the data monitoring committee after review of the safety data from the previous Cohort. Subjects who developed CMV disease or CMV infection requiring pre-emptive therapy with local standard of care were discontinued from blinded therapy and followed for 4 weeks. Subjects who completed treatment with blinded therapy were followed for 8 weeks post-therapy.
The primary endpoint was defined as the incidence of CMV disease at any time during treatment or CMV DNAemia≧200 copies/mL at the end of treatment. All subjects who received at least one dose of drug/placebo and had at least one efficacy evaluation post baseline were included in the primary analysis, regardless of their CMV DNAemia status (negative or positive) at baseline (mITT population). Results for the pooled HDP-CDV Cohorts and for each Cohort separately were analyzed versus that for pooled placebo.
The primary efficacy measure for this study was treatment failure, defined as the occurrence of CMV infection, defined as CMV DNAemia>200 copies/mL at the End of Treatment or diagnosis of CMV disease at any time during the treatment period. For the analysis, the following definitions apply:
For subjects who completed the treatment phase of the study, the End of Treatment was defined as the latest assessment from date of the last dose of study drug and up to 7 days for QW dosing, or the date of the last dose of study drug and up to 4 days for BIW dosing. For subjects who discontinued during the treatment phase of the study, the End of Treatment was defined as the date of the last dose of study drug.
The time to event was defined as the period between FDD and date of first occurrence of the event of interest (inclusive). The events included onset of CMV DNAemia, onset of CMV disease, and discontinuation because of excluded anti-CMV medications. Time to event/onset was derived as (the event/onset date—FDD)+1.
As detailed in the Statistical Analysis Plan, a modified CMV stratum was defined prior to conducting the statistical analysis based upon polymerase chain reaction (PCR) results from the central laboratory. If any positive CMV DNA value in plasma was collected before the first dose of study drug (including Screening, Pre-dose, (combined Screening/Pre-dose), CMV for stratification, and FDD), then the subject was placed into the modified CMV positive (≧100 copies/mL) stratum, otherwise the subject was in the modified CMV negative stratum. […]

[1] = 200 mg BIW/QW, modified CMV negative stratum
[2] = 200 mg BIW, CMV modified strata: negative
[3] = 200 mg BIW, modified CMV negative stratum
[4] = 200 mg QW, CMV modified strata: negative

CCCCCCCCCCCCCCCCOCCCOP(=O)(O)COC(CO)Cn1ccc(N)nc1=O (stereo not drawn) [HDP-CDV]
Time to CMV DNAemia (≧100 copies/mL), Mean (100 mg QW, treatment period, censored values not included): 38.8 days
Number of Subjects who had CMV DNAemia (≧100 copies/mL) by the end of study (100 mg QW, whole study period): 8
Time to CMV DNAemia (≧100 copies/mL), Mean (100 mg QW, whole study period): 53.4 days
Time to CMV DNAemia (≧100 copies/mL), Median (100 mg QW, whole study period): 38.5 days
% CMV Event Rate: Incidence of CMV DNAemia >100 copies/mL During Treatment (Fisher analysis, ref 14.3.3.2.1) [1]: 4 (18.2%) subjects (%)
% CMV Event Rate: Incidence of CMV DNAemia ≧1,000 copies/mL at any time during treatment [1]: 0 subjects (%)
Difference (HDP-CDV minus placebo) in infection rate [2]: −16.2%
Difference (HDP-CDV minus placebo) in rate of CMV DNAemia ≧1,000 copies/ml [2]: −31.9%
Rate of CMV DNAemia ≧1,000 copies/ml during the treatment period [2]: 0%
Rate of CMV Disease or End of Treatment CMV Infection [2]: 13.6%
Difference (HDP-CDV minus placebo) in rate of CMV DNAemia ≧1,000 copies/mL (200 mg BIW): −58.3%
Rate of CMV DNAemia ≧1,000 copies/mL during the treatment period (200 mg BIW): 25%
Rate of CMV Disease or End of Treatment CMV Infection (200 mg BIW, aGVHD randomization strata: negative): 24.1%
Difference (HDP-CDV minus placebo) in infection rate (200 mg BIW, aGVHD strata: negative): −7.9%
Discontinuation: Emergence of CMV disease (200 mg BIW): 0 Subject n (%)
Discontinuation: Initiation of alternate CMV therapy (200 mg BIW): 5 (16.7%) Subject n (%)
Difference (HDP-CDV minus placebo) in rate of CMV DNAemia ≧1000 copies/mL (200 mg BIW, mITT): −35.7%
Difference (HDP-CDV minus placebo) in rate of CMV disease or end of treatment CMV infection (200 mg BIW, mITT): −14.0%
Subjects Receiving Antiviral Therapy and/or had CMV disease (200 mg BIW, mITT): 5 (16.7%) subjects (%)
Subjects without a CMV event (200 mg BIW, mITT): 25 (83.3%) subjects (%)
Time to Antiviral Therapy, Median (200 mg BIW, mITT): 15.0 days
Rate of CMV Disease or End of Treatment CMV Infection (≧200 copies/ml) (200 mg BIW, mITT, missing=infection): 23% and 23.3%
Rate of CMV DNAemia ≧1000 copies/mL during the treatment period (200 mg BIW, mITT, post hoc): 7% and 6.7%
Time to Antiviral Therapy, Mean (200 mg BIW, mITT, censored values not included): 21.6 days
Subjects Who Had CMV-related Event (CMV disease, CMV DNAemia ≧1,000 c/mL or initiation of anti-CMV treatment) [3]: 3 (13.6%) subjects (%)
Subjects without a CMV-related event [3]: 20 (86.4%) subjects (%)
Developed CMV DNAemia (≧100 copies/mL) during the treatment period (200 mg BIW, plasma CMV DNA negative at baseline, mITT): 4 (17.4%) N(%)
Time to CMV DNAemia (≧100 copies/mL), Median (200 mg BIW, treatment period): 25.5 days
Time to CMV DNAemia (≧100 copies/mL), Mean (200 mg BIW, treatment period, censored values not included): 24.8 days
Median Survival Time to CMV DNAemia (Kaplan-Meier) (200 mg BIW, whole study period): 130 days
Number of Subjects who had CMV DNAemia (≧100 copies/mL) by the end of study (200 mg BIW, whole study period): 9
Time to CMV DNAemia (≧100 copies/mL), Mean (200 mg BIW, whole study period): 49.0 days
Time to CMV DNAemia (≧100 copies/mL), Median (200 mg BIW, whole study period): 42.0 days
Difference (HDP-CDV minus placebo) in infection rate [4]: −9.1%
Difference (HDP-CDV minus placebo) in rate of CMV DNAemia ≧1,000 copies/ml [4]: −25.0%
Rate of CMV DNAemia ≧1,000 copies/ml during the treatment period [4]: 6.9%
Rate of CMV Disease or End of Treatment CMV Infection [4]: 20.7%
Difference (HDP-CDV minus placebo) in rate of CMV DNAemia ≧1,000 copies/mL (200 mg QW): −33.3%
Rate of CMV DNAemia ≧1,000 copies/mL during the treatment period (200 mg QW): 50.0%
Rate of CMV Disease or End of Treatment CMV Infection (200 mg QW, aGVHD randomization strata: negative): 30.8%
Difference (HDP-CDV minus placebo) in infection rate (200 mg QW, aGVHD strata: negative): −1.3%
Discontinuation: Emergence of CMV disease (200 mg QW): 0 Subject n (%)
Discontinuation: Initiation of alternate CMV therapy (200 mg QW): 7 (17.9%) Subject n (%)
Difference (HDP-CDV minus placebo) in rate of CMV DNAemia ≧1000 copies/mL (200 mg QW, mITT): −24.4%
Difference (HDP-CDV minus placebo) in rate of CMV disease or end of treatment CMV infection (200 mg QW, mITT): −6.5%
